Test results taken from patent US6911537B2, “Xenobiotic compound modulated expression systems and uses therefor” (The Salk Institute for Biological Studies, priority 1998, dated 2005).
Entries after “also recorded” stand apart in the source; their conditions may differ. Read-outs that look alike come from different tables or passages of the source.

Legend:
[1] = biological target: T1, SXR (Homo sapiens, UniProt O75469); experiment: Transfection-based reporter assay in CV-1 cells, GAL4-SXR or full-length SXR; set-up: Activation of SXR response elements (DR-3, DR-4, DR-5) by full-length SXR: dose or concentration left out as unconfirmed; conditions: for Activation of human SXR by compounds known to induce CYP3A4: 50 μM, tamoxifen 5 μM (FIG. 7A); for Activation of SXR in transfection-based assays: GAL4-SXR LBD chimera or full-length SXR, CV-1 cells, steroids at high doses, up to 50 mM [sic]; for Activation of SXR response elements (DR-3, DR-4, DR-5) by full-length SXR: cotransfection, panel of steroids as printed (FIG. 4)
T1 sequence (O75469 1-434): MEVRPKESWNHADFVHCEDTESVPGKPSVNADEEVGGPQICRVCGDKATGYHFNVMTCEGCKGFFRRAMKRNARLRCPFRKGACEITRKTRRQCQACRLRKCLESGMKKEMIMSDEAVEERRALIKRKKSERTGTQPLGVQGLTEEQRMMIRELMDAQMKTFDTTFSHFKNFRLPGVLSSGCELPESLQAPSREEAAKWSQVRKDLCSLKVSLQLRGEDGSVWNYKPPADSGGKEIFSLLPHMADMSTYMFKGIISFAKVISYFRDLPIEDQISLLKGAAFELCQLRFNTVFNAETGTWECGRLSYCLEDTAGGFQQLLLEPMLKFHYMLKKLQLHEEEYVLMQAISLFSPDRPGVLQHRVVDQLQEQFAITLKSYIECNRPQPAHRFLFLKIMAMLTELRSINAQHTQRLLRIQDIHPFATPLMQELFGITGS
T1 sequence (P19793 1-462 partner): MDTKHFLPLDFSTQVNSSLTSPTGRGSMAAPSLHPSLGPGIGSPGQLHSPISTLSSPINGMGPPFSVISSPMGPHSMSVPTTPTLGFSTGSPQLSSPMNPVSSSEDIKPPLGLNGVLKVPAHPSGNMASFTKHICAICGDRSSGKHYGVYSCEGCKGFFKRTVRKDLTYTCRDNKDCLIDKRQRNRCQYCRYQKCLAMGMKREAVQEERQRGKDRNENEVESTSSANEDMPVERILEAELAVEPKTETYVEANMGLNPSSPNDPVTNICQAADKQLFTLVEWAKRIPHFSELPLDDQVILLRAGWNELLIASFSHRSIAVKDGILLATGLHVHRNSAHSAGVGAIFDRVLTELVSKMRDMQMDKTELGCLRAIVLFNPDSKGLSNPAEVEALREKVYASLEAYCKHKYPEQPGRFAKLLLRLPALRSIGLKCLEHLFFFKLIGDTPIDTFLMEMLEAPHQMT
Description: (§4) Thus, the protein coding region of SXR was PCR amplified and subcloned into NcoI and BamH1 sites of the vector pCDG1 (see Blumberg et al., supra). During this process the putative initiator Leu was converted to Met with a Kozak consensus sequence CCATGG.

[2] = biological target: T2, endogenous PXR (Rattus norvegicus, UniProt Q9R1A7); conditions: hepatocytes
T2 sequence (Q9R1A7 1-431): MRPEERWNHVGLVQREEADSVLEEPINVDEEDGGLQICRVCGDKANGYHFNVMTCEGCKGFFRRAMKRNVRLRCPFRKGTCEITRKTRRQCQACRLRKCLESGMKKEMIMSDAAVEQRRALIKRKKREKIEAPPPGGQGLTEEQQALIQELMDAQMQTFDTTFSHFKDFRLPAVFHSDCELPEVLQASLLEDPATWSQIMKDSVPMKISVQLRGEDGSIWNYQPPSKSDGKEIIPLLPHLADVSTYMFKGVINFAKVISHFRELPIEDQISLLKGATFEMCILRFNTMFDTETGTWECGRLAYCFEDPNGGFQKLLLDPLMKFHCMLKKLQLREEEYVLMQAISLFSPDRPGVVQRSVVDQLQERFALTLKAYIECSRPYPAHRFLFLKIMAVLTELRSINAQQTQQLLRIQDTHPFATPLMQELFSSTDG
Description: (§1) The PCR-amplified sequences and target mutagenesis were confirmed by DNA sequencing.
(§2) All compounds were purchased from Sigma.
(§3) A panel of natural and synthetic steroid and nonsteroid compounds were tested for their ability to activate SXR and/or PXR in transfection-based assays using primary rat hepatocytes as recipient cells and the cellular promoters of the rat CYP3A23 gene or the human CYP3A4 gene as reporters.

[3] = biological target: T3, SXR (Homo sapiens, UniProt O75469)
T3 sequence (O75469 1-434): T1 sequence (O75469 1-434)
Description: as §1, §2, §3

[4] = biological target: T1, SXR; remark: listed apart in the source
Description: as §4

C[C@]12C[C@H](O)[C@H]3[C@@H](CCC4=CC(=O)CC[C@@]43C)[C@@H]1CC[C@@H]2C(=O)CO [corticosterone]
Activation of human SXR by compounds known to induce CYP3A4 [1]: most potent activators
Activation of SXR in transfection-based assays [1]: most potent and efficacious activator; also recorded: activated
Activation of SXR response elements (DR-3, DR-4, DR-5) by full-length SXR [1]: among the best activators

O=c1c(-c2ccc(O)cc2)coc2cc(O)cc(O)c12 [genistein]
Activation of human SXR by compounds known to induce CYP3A4 [1]: activate

C[C@]12CCC(=O)C=C1CC[C@@H]1[C@@H]2C(=O)C[C@@]2(C)[C@H]1CC[C@]2(O)C(=O)CO [cortisone]
Activation of SXR response elements (DR-3, DR-4, DR-5) by full-length SXR [1]: intermediate activators; also recorded: intermediate group

Oc1ccc([C@H]2COc3cc(O)ccc3C2)cc1 [equol]
Activation of human SXR by compounds known to induce CYP3A4 [1]: activate

CC/C(=C(/CC)c1ccc(O)cc1)c1ccc(O)cc1 [DES, diethylstilbestrol]
Activation of human SXR by compounds known to induce CYP3A4 [1]: most potent activators

estrogen
Activation of SXR in transfection-based assays [1]: activated

CC(=O)[C@H]1CC[C@H]2[C@@H]3CC=C4C[C@@H](O)CC[C@]4(C)[C@H]3CC[C@]12C [pregnenolone]
Activation of SXR response elements (DR-3, DR-4, DR-5) by full-length SXR [1]: among the best activators
Activation of CYP3A23 promoter reporter in the absence of SXR [2]: fail to activate or behave as poor activators
Induction of CYP3A23 promoter reporter with co-transfection of SXR [3]: significant induction

CC(=O)[C@H]1CC[C@H]2[C@@H]3CCC4=CC(=O)CC[C@]4(C)[C@H]3CC[C@]12C [progesterone]
Activation of CYP3A23 promoter reporter in the absence of SXR [2]: fail to activate or behave as poor activators

C[C@]12CCC(=O)C=C1CC[C@@H]1[C@@H]2[C@@H](O)C[C@@]2(C)[C@H]1CC[C@]2(O)C(=O)CO [cortisol]
Activation of SXR response elements (DR-3, DR-4, DR-5) by full-length SXR [1]: little response

C[C@]12CCC(=O)C[C@@H]1CC[C@@H]1[C@@H]2CC[C@]2(C)[C@@H](O)CC[C@@H]12 [dihydrotestosterone]
Activation of SXR in transfection-based assays [4]: remarkably effective activators
Activation of SXR response elements (DR-3, DR-4, DR-5) by full-length SXR [4]: among the best activators
Activation of human SXR by compounds known to induce CYP3A4 [4]: activate

CCC1(c2ccccc2)C(=O)NC(=O)NC1=O [phenobarbital]
Activation of CYP3A23 promoter reporter in the absence of SXR [2]: fail to activate or behave as poor activators
Induction of CYP3A23 promoter reporter with co-transfection of SXR [3]: significant induction

CC(=O)S[C@@H]1CC2=CC(=O)CC[C@]2(C)[C@H]2CC[C@@]3(C)[C@@H](CC[C@@]34CCC(=O)O4)[C@H]12 [spironolactone]
Activation of human SXR by compounds known to induce CYP3A4 [4]: activate

CCCCC/C=C/C=C1/C(=O)C=C[C@@H]1C/C=C\CCCC(=O)O [15d-PGJ2]
Activation of CYP3A23 promoter reporter by PPARγ ligands in the presence of SXR [3]: fail to activate

C[C@]12CCC(=O)C=C1CC[C@@H]1[C@@H]2[C@@H](O)C[C@]2(C=O)[C@@H](C(=O)CO)CC[C@@H]12 [aldosterone]
Activation of SXR in transfection-based assays [1]: inactive
Activation of SXR response elements (DR-3, DR-4, DR-5) by full-length SXR [1]: little response

O=c1oc2cc(O)ccc2c2oc3cc(O)ccc3c12 [coumestrol]
Activation of human SXR by compounds known to induce CYP3A4 [1]: most potent activators

Cc1ccc2cc3c(ccc4ccccc43)c3c2c1CC3 [3MC, 3-methylcholanthrene]
Activation of CYP3A23 promoter reporter in the absence of SXR [2]: fail to activate or behave as poor activators
